For series [1], the target named is T1, EmrE (Escherichia coli, UniProt P23895). The series is described as follows: SSME transport with purified EmrE in proteoliposomes, empty liposome control. Type of series: biochemical. Also on record: WT-EmrE in POPC proteoliposomes.
The target in series [2] is T1, EmrE. The series is described as follows: ITC (pH […] ºC); NMR pH titration; ZZ-exchange NMR. Type of series: binding. Also on record: WT EmrE, antiparallel homodimer, in DMPC/DHPC isotropic bicelles.
The target of another series is Glu14 (UniProt position 14, GAILAEVIGTT). The series is described as follows: NMR. The following applies: 45 °C; not stated (no added salt beyond the buffer components); 20 mM sodium acetate, 50 mM Mes, 50 mM Mops, 100 mM bicine, 2 mM TCEP, 0.01% sodium azide; Saturated with 2H-dTPP2+ (at least 4x the EmrE monomer concentration). Alternating access is in slow exchange, and the substrate is associated asymmetrically with subunit A.

T1 sequence (P23895 whole entry): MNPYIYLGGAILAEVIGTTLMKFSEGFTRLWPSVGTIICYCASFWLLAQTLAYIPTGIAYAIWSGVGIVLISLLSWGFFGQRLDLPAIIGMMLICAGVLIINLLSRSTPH

Turning to `CC[n+]1c(-c2ccccc2)c2cc(N)ccc2c2ccc(N)cc21` [Eth+, ethidium], on EmrE [1], the “SSME transport with purified EmrE in proteoliposomes, empty liposome control” value is given as “observed signal under these conditions is transport dependent on the protein as empty controls show minimal signal”.
The same measure, in the same setting: as for `C[n+]1ccc(-c2cc[n+](C)cc2)cc1` [MV2+, methyl viologen], the entry is “Addition of the substrate gradient resulted in increased net flux compared with drug-free conditions, consistent with net symport”.
As usually defined, the Kd is the equilibrium constant for the complex coming apart. Read a low Kd as higher affinity. In the case of `c1ccc([P+](c2ccccc2)(c2ccccc2)c2ccc([P+](c3ccccc3)(c3ccccc3)c3ccccc3)cc2)cc1` [dTPP2+, 1,4-phenylenebis(triphenylphosphonium) bromide], the Kd on EmrE [2] worked out at 8.1 ± 0.4 µM.
Compound `c1ccc(C(c2ccccc2)(c2ccccc2)c2ccc([P+](c3ccccc3)(c3ccccc3)c3ccccc3)cc2)cc1` [dTPP+, triphenyl[4-(triphenylmethyl)phenyl]phosphonium iodide] registered a Kd on EmrE [2] of 9.3 ± 0.3 µM.
A word on the pKa: it is the negative logarithm of the acid dissociation constant. Take “EmrE (small multidrug resistance transporter) (Escherichia coli)”: the pKa in the series with Glu14 is on record as 6.2 ± 0.1.

Values taken from PMC9860125 (The Journal of Biological Chemistry, 2022).
